Results from US20030113267A1, “Colon contrast enhanced imaging” (priority 1999, published 2003).

Experiments:
[1] = MRI signal intensity over time in liver parenchyma, healthy volunteers; type: in vivo, human; conditions: average of six healthy volunteers, 0.1 mmol/kg i.v., FIG. 1
Description: (§1) The trial was conducted in six healthy volunteers aged between 22 and 29 years. The contrast agent used was Gd-BOPTA meglumine salt (MultiHance™), administered intravenously at a dose of 0.1 mmol/kg of body weight. The successive recording of images of the abdomen was performed 1, 12, 24, 36, 48, 70 and 105 hours after administration of the agent using the following 3D angio-sequence: 3D FLASH; TR 4.6 ms; TE 1.8 ms; α 50° C.; rect. FOV 390 mm (6/8); Ma: 215×512; acq 28 s; slab thickness 120 mm; 42 sections. Three volunteers were re-tested 14 days after administration of the agent.
(§2) T1-weighted axial images of the liver and abdomen were recorded in addition to the 3D angio-sequences referred to above.
(§3) The visualisation procedure was conducted with an MRI scanner operating at 1.5 Tesla (Magneton Vision Plus, Siemens Medical Systems, Erlangen, Germany) equipped with a phased array body coil.
(§4) Before performing colonography, it was possible to investigate liver function by recording the signal intensity in the liver parenchyma and gall bladder in the first few hours after administration of the contrast agent. […] This seems to be the ideal period for recording three-dimensional MRI colonography.

[2] = MRI signal intensity over time in gall bladder, healthy volunteers; type: in vivo, human
Description: as §1, §2, §3, §4

[3] = 3D angiographic MRI colonography in healthy volunteers after intravenous injection; type: in vivo, human
Source text: Description of method of acquisition of MRI images of the luminal part of the colon using the three-dimensional angiography technique in healthy volunteers after intravenous injection of MultiHance™ (Gd-BOPTA meglumine salt).
A three-dimensional angiographic imaging technique was used because it provides advantageous visualisation of large regions of the anatomy, especially when associated with administration of contrast agents which are particularly effective in reducing the T1 relaxation times in standard MRI investigations.
In the trial conducted, the increased contrast in the hepatobiliary system and the gastrointestinal system was obtained with this kind of diagnostic technique, which produced up to 42 images of a three-dimensional volume measuring 40×32×12 cm in a single breath-hold.
as §1, §2, §3
The images were processed with standard MIP software on a dedicated 3D MR workstation (Virtuoso, Siemens Medical System).
No preparation, medication or joint administration of other drugs or other contrast media was performed on the volunteers studied.

[4] = in man; cited from earlier work
[5] = cited from earlier work

time for signal intensity to be halved in liver parenchyma [1]: ≤ 10 h
half-life of signal intensity in gall bladder ([2]; average of six healthy volunteers, 0.1 mmol/kg i.v., FIG. 1): 15 h
SMILES: CNC[C@H](O)[C@@H](O)[C@H](O)[C@H](O)CO.CNC[C@H](O)[C@@H](O)[C@H](O)[C@H](O)CO.O=C([O-])CN(CCN(CC(=O)[O-])CC(=O)O)CCN(CC(=O)O)C(COCc1ccccc1)C(=O)[O-].[Gd+3] (centres unmarked) [MultiHance, gadobenate dimeglumine]
enhancement within the gallbladder ([2]; 24 hours after injection of 0.1 mmol/kg BW, FIG. 2): still intense enhancement
time after which a partial increase of intraluminal signal was still detectable ([3]; 0.1 mmol/kg i.v.): 8 days
homogeneity of contrast in the lumen ([3]; 0.1 mmol/kg i.v., faeces present, no preparation): homogenous contrast in the lumen
signal in the colon, 3D MR colonography ([3]; 24 hours after injection of 0.1 mmol/kg BW, no bowel preparation, FIG. 2): Homogenous signal can be seen in all segments of the colon
time to intense increase in intraluminal contrast after administration ([3]; all six healthy volunteers, 0.1 mmol/kg i.v., no bowel preparation): ≤ 24 h
time after administration at which an intense intraluminal signal was still detected in the colon ([3]; in some patients, 0.1 mmol/kg i.v.): ≤ 100 h
intraluminal contrast after intravenous administration ([3]; intravenous administration, contrast recorded in the colon): substantial increase in intraluminal contrast
proportion excreted by the biliary route [4]: 2-4%
solubility in water [5]: soluble in water
